# Tested on: human limbal stem cells
# Assay: Human limbal stem cell population expansion and measurement (expansion factor, p63alpha-positive cells)
# Assay type: cell-based
# Conditions: 10 micromolar in XVIVO15 medium, two passages; for Expansion factor: ratio of expanded population to seeded cells; for Percentage of p63a-positive cells: share of Sytox Orange-positive nuclei expressing p63alpha
# Experimental: Cells were cultured at 37° C. in 5% CO2.
# For each compound, two sets of cultures were generated. A first set of cultures was fixed in 4% PFA for 20 minutes at room temperature after cells isolated from the cornea had attached to the cell culture dish (typically 24 h after cell plating). A second set of cultures was fixed in 4% PFA for 20 minutes at room temperature after being cultured for two passages. Cells were passaged when they reached 90-100% confluence.
# In order to observe that the expanded cell population expressed p63alpha, this was measured by immunohistochemistry as follows. The fixed cell cultures were permeabilized and blocked in a blocking solution of 0.3% Triton X-100 (Sigma-Aldrich) and 3% donkey serum in PBS for 30 minutes. Cells were then labeled with primary antibody in the blocking solution for 12 hours at 4° C. Primary antibody used was p63alpha from Cell Signalling. Samples were washed in PBS three times and donkey-raised secondary antibody Alexa Fluor 488 (Molecular Probes) at 1:500 dilution were applied for 30 minutes at room temperature. Cell nuclei were then labeled in a solution of 0.5 micromolar of Sytox Orange (ThermoFisher) in PBS for 5 minutes at room temperature.
# To evaluate the percentage of p63alpha-positive cells, the number of cells labeled by the anti-p63alpha antibody was counted and the total number of cells was determined by counting the number of nuclei stained by Sytox Orange. The proportion of p63alpha-positive cells was then determined by calculating the percentage of Sytox-orange-positive nuclei that also expressed p63alpha.
# To evaluate cell expansion ratios, nuclei were counted using a Zeiss LSM 880 confocal microscope. The expansion factor was then determined by calculating the ratio of the expanded population of cells to population of seeded cells.
Structure (SMILES),Expansion factor,Percentage of p63a-positive cells [%]
"CCCNc1nc(-c2ccncc2)nc2cnccc12 [N-propyl-2-(pyridin-4-yl)pyrido[3,4-d]pyrimidin-4-amine]",1423,93
CC1(Nc2cc(-c3ccncc3)cc3cnccc23)CC1 [N-(1-methylcyclopropyl)-7-(pyridin-4-yl)isoquinolin-5-amine],681,80
"CC(C)(C)Nc1cc(-c2ccncc2)nc2cnccc12 [Example 2, N-(tert-butyl)-2-(pyridin-4-yl)-1,7-naphthyridin-4-amine]",1717,93
"O[C@H]1CCC[C@@H]1Nc1nc(-c2ccncc2)nc2cnccc12 [(1S,2S)-2-{[2-(pyridin-4-yl)pyrido[3,4-d]pyrimidin-4-yl]amino}cyclopentan-1-ol]",39,6
"CCCNc1nc(-c2c[nH]nc2C(F)(F)F)nc2cnccc12 [N-propyl-2-(3-(trifluoromethyl)-1H-pyrazol-4-yl)pyrido[3,4-d]pyrimidin-4-amine]",991,86
"CC1CCCC1Nc1nc(-c2ccncc2)nc2cnccc12 (centres unmarked) [N-(2-methylcyclopentyl)-2-(pyridin-4-yl)pyrido[3,4-d]pyrimidin-4-amine]",976,86
"c1cc(-c2nc(NC3CCCC3)c3ccncc3n2)ccn1 [N-cyclopentyl-2-(pyridin-4-yl)pyrido[3,4-d]pyrimidin-4-amine]",1048,87
"FC(F)(F)C1CN(c2nc(-c3ccncc3)nc3cnccc23)CCN1 (centres unmarked) [2-(pyridin-4-yl)-4-(3-(trifluoromethyl)piperazin-1-yl)pyrido[3,4-d]pyrimidine]",1051,90
"CC(C)Nc1nc(-c2ccncc2)nc2cnccc12 [N-(propan-2-yl)-2-(pyridin-4-yl)pyrido[3,4-d]pyrimidin-4-amine]",1275,93
"FC(F)(F)C1(Nc2nc(-c3ccncc3)nc3cnccc23)CCC1 [2-(pyridin-4-yl)-N-[1-(trifluoromethyl)cyclobutyl]pyrido[3,4-d]pyrimidin-4-amine]",1712,95
"FC(F)(F)C1(Nc2nc(-c3ccncc3)cc3cnccc23)CC1 [3-(pyridin-4-yl)-N-(1-(trifluoromethyl)cyclopropyl)-2,6-naphthyridin-1-amine]",1241,95
"CC(C)(Nc1nc(-c2ccncc2Cl)nc2cnccc12)C(F)(F)F [2-(3-chloropyridin-4-yl)-N-(1,1,1-trifluoro-2-methylpropan-2-yl)pyrido[3,4-d]pyrimidin-4-amine]",961,87
"CC(C)(CO)Nc1nc(-c2ccncc2)nc2cnccc12 [2-methyl-2-{[2-(pyridin-4-yl)pyrido[3,4-d]pyrimidin-4-yl]amino}propan-1-ol]",1160,89

# From patent US20230348852A1, “METHODS AND COMPOSITIONS FOR OCULAR CELL THERAPY” (NOVARTIS AG, priority 2020, published 2023)
